Measurements: patent US20260158017A1, “KIF18A INHIBITOR” (WIGEN BIOMEDICINE TECHNOLOGY (SHANGHAI) CO., LTD., priority 2021, published 2026)
Blank lines part the entries; values can stand above or below the compound they belong to.

Target: T1, Recombinant human KIF18A (1-467His-tagged) protein (Homo sapiens, UniProt Q8NI77)
T1 construct: Recombinant human KIF18A (1-467His-tagged) protein; His; made in house
Experiment: KIF18A enzyme assay (microtubule-stimulated ATPase activity, ADP-Glo)
Assay type: biochemical
Conditions: 30 nM KIF18A, 75 μM ATP, 30 μg/mL pig microtubules; read-out: Inhibitory activity against KIF18A IC50
Experimental: In Vitro Assay of the Compounds of the Present Invention for Inhibiting Enzymatic Activity of KIF18A
KIF18A enzyme assay: The enzymatic activity of KIF18A after treatment with the compounds was measured by an assay of microtubule-stimulated ATPase activity. ADP generated from the ATPase reaction was measured in this assay. The compounds were serially diluted 2-fold in DMSO over a range of 22 concentration points. […] Concentrations of KIF18A protein, microtubules, and ATP in the reaction were optimized for a standardized homogenous enzyme assay using an ADP-Glo kinase/ATPase assay kit. A reaction buffer [(15 mM Tris, pH 7.5), 10 mM MgCl2, 0.01% PluronicF-68, 1 μM paclitaxel, and 30 μg/mL pig microtubules] was prepared. […] The resulting reaction mixture was incubated at room temperature for another 15 min. 5 μL of ADP-Glo reagent and 2.5 μL of the reaction mixture were mixed and the resulting mixture was incubated at room temperature for 40 min. 10 μL of ADP-Glo detection reagent was added and the mixture was incubated at room temperature for 40 min. Luminescence was read using a microplate reader and compared with that of the DMSO group, and then the inhibition percentages and IC50 values of the compounds were calculated.

T1 sequence (Q8NI77 1-467): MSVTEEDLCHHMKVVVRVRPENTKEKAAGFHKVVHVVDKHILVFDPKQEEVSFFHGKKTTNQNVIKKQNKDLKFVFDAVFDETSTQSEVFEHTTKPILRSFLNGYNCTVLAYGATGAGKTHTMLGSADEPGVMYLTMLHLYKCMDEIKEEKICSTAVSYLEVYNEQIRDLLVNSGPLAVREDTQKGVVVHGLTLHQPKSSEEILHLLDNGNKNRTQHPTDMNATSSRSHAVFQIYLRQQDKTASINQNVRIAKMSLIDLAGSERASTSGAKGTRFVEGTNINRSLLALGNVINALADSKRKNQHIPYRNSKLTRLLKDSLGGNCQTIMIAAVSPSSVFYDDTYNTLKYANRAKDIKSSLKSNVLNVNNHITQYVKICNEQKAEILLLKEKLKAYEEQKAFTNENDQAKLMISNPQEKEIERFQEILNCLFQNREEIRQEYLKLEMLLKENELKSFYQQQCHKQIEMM
T1 sequence (P02550 whole entry partner): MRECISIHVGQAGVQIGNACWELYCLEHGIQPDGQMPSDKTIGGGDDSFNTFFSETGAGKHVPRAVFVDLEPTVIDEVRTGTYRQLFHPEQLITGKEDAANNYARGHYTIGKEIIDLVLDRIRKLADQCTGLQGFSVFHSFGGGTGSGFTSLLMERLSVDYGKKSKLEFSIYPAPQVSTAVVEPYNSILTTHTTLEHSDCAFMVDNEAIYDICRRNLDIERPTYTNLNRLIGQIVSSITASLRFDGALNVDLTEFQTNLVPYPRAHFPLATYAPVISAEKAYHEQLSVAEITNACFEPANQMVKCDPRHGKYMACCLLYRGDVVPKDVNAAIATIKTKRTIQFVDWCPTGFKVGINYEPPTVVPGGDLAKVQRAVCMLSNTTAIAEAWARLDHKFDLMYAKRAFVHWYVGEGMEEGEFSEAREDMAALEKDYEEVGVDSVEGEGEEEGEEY
T1 sequence (P02554 whole entry partner): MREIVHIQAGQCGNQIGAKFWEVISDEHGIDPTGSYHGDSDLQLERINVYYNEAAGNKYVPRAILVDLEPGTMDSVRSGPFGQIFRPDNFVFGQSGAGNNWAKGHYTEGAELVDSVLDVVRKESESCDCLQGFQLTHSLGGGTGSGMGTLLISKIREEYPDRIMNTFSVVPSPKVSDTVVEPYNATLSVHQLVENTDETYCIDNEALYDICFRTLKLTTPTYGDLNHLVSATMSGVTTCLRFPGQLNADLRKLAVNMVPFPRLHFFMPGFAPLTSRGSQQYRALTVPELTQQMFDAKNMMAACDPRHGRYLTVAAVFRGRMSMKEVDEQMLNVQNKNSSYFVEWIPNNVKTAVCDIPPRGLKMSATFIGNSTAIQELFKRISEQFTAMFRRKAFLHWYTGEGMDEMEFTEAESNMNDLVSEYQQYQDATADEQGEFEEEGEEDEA

SMILES: O=C(Nc1cnc(NS(=O)(=O)CCO)cc1N1CCC2(CC1)CC2)c1ccc([N+](=O)[O-])c(N2CC3CC3C2)c1 (stereo not shown) [Compound 202]
- IC50: ≤ 100 nM

SMILES: O=C(Nc1ccc(OCF)c(N2CCC(F)(F)CC2)n1)c1ccc(S(=O)(=O)NCCO)cc1N1CCC2(CC1)CC2 [Compound 433]
- IC50: ≤ 100 nM

SMILES: C[C@@H]1CN(c2cc(NC(=O)c3ccc(NS(=O)(=O)CCO)cc3N3CCC4(CC3)CC4)ccc2OCF)CCO1 [Compound 386]
- IC50: ≤ 100 nM

SMILES: O=C(Nc1ccc(S(=O)(=O)NCCO)cc1N1CCC2(CC1)CC2)c1ccc(OCF)c(OC2CCC2)n1 [Compound 567]
- IC50: 100 to 500 nM

SMILES: COc1ccc(C(=O)Nc2ccc(NS(=O)(=O)CCO)cc2N2CCC3(CC2)CC3)nc1N1CCC(F)CC1 [Compound 329]
- IC50: ≤ 100 nM

SMILES: CC(C)(CO)Nc1cc(NC(=O)c2ccc(S(=O)(=O)NCCO)cc2N2CCC3(CC2)CC3)ccc1OCF [Compound 411]
- IC50: ≤ 100 nM

SMILES: COc1ccc(NC(=O)c2ccc(NS(=O)(=O)[C@H](C)CO)cc2N2CCC3(CC2)CC3)nc1N1CCC(F)(F)CC1 [Compound 270]
- IC50: ≤ 100 nM

SMILES: C[C@H]1CN(c2nc(C(=O)Nc3ccc(NS(=O)(=O)CCO)cc3N3CCC4(CC3)CC4)ccc2[N+](=O)[O-])CCO1 [Compound 163]
- IC50: ≤ 100 nM

SMILES: O=C(Nc1ccc(OCF)c(N2CCOCC2)n1)c1ccc(NS(=O)(=O)CCO)cc1N1CCC2(CC1)CC2 [Compound 428]
- IC50: ≤ 100 nM

SMILES: CC(C)(CO)Nc1cc(C(=O)Nc2cnc(S(=O)(=O)NCCO)cc2N2CCC3(CC2)CC3)ccc1[N+](=O)[O-] [Compound 219]
- IC50: 100 to 500 nM

SMILES: C[C@@H](CO)NS(=O)(=O)c1cc(N2CCC3(CC2)CC3)c(C(=O)Nc2ccc([N+](=O)[O-])c(N3CCC(F)(F)CC3)c2)cn1 [Compound 125]
- IC50: ≤ 100 nM

SMILES: CC1(F)CCN(c2cc(C(=O)Nc3cnc(NS(=O)(=O)CCO)cc3N3CCC4(CC3)CC4)ccc2[N+](=O)[O-])C1 (stereo not shown) [Compound 200]
- IC50: ≤ 100 nM

SMILES: O=C(Nc1ccc(OCF)c(OC2CCC2)c1)c1ccc(NS(=O)(=O)CCO)cc1N1CCC2(CC1)CC2 [Compound 391]
- IC50: ≤ 100 nM

SMILES: O=C(Nc1ccc(OCF)c(N2CC3CC3C2)n1)c1cnc(NS(=O)(=O)CCO)cc1N1CCC2(CC1)CC2 (stereo not shown) [Compound 490]
- IC50: ≤ 100 nM

SMILES: CC(C)(CO)Nc1nc(NC(=O)c2ccc(S(=O)(=O)NCCO)cc2N2CCC3(CC2)CC3)ccc1[N+](=O)[O-] [Compound 91]
- IC50: ≤ 100 nM

SMILES: COc1ccc(NC(=O)c2ccc(S(=O)(=O)NCCO)cc2N2CCC3(CC2)CC3)nc1N1CCO[C@@H](C)C1 [Compound 275]
- IC50: ≤ 100 nM

SMILES: C[C@@H](CO)S(=O)(=O)Nc1cc(N2CCC3(CC2)CC3)c(NC(=O)c2ccc([N+](=O)[O-])c(N3CCC(F)(F)CC3)c2)cn1 [Compound 205]
- IC50: ≤ 100 nM

SMILES: O=C(Nc1ccc(OCF)c(N2CCOCC2)n1)c1cnc(NS(=O)(=O)CCO)cc1N1CCC2(CC1)CC2 [Compound 492]
- IC50: ≤ 100 nM

SMILES: CSc1ccc(NC(=O)c2ccc(NS(=O)(=O)CCO)cc2N2CCC3(CC2)CC3)nc1N1CCO[C@@H](C)C1 [Compound 595]
- IC50: ≤ 100 nM

SMILES: O=C(Nc1cnc(S(=O)(=O)NCCO)cc1N1CCC2(CC1)CC2)c1ccc([N+](=O)[O-])c(N2CC(F)(F)C2)c1 [Compound 212]
- IC50: 100 to 500 nM

SMILES: C[C@H](CO)NS(=O)(=O)c1ccc(C(=O)Nc2ccc([N+](=O)[O-])c(N3CCC(F)(F)CC3)n2)c(N2CCC3(CC2)CC3)c1 [Compound 94]
- IC50: ≤ 100 nM

SMILES: O=C(Nc1ccc(OCF)c(N2CCC(F)CC2)c1)c1ccc(NS(=O)(=O)CCO)cc1N1CCC2(CC1)CC2 [Compound 393]
- IC50: ≤ 100 nM

SMILES: CC(C)(CO)Nc1nc(C(=O)Nc2ccc(NS(=O)(=O)CCO)cc2N2CCC3(CC2)CC3)ccc1OCF [Compound 555]
- IC50: ≤ 100 nM

SMILES: O=C(Nc1ccc(S(=O)(=O)NCCO)cc1N1CCC2(CC1)CC2)c1ccc([N+](=O)[O-])c(N2CCOCC2)c1 [Compound 60]
- IC50: 100 to 500 nM

SMILES: CSc1ccc(NC(=O)c2cnc(NS(=O)(=O)[C@H](C)CO)cc2N2CCC3(CC2)CC3)cc1N1CCO[C@H](C)C1 [Compound 624]
- IC50: ≤ 100 nM

The remaining lines, values ahead:

- IC50: ≤ 100 nM
SMILES: O=C(Nc1ccc([N+](=O)[O-])c(N2CCC(F)CC2)c1)c1ccc(NS(=O)(=O)CCO)cc1N1CCC2(CC1)CC2 [Compound 9]

- IC50: 100 to 500 nM
SMILES: C[C@H]1CN(c2nc(C(=O)Nc3cnc(S(=O)(=O)NCCO)cc3N3CCC4(CC3)CC4)ccc2[N+](=O)[O-])CCO1 [Compound 243]

- IC50: ≤ 100 nM
SMILES: O=C(Nc1ccc(OCF)c(N2CCC(F)(F)CC2)n1)c1cnc(NS(=O)(=O)CCO)cc1N1CCC2(CC1)CC2 [Compound 481]

- IC50: ≤ 100 nM
SMILES: O=C(Nc1ccc([N+](=O)[O-])c(OC2CCC2)c1)c1cnc(NS(=O)(=O)CCO)cc1N1CCC2(CC1)CC2 [Compound 103]

- IC50: ≤ 100 nM
SMILES: C[C@H]1CN(c2nc(NC(=O)c3ccc(S(=O)(=O)NCCO)cc3N3CCC4(CC3)CC4)ccc2[N+](=O)[O-])CCO1 [Compound 83]

- IC50: ≤ 100 nM
SMILES: O=C(Nc1ccc(OCF)c(N2CCC3(CC3)C2)c1)c1ccc(NS(=O)(=O)CCO)cc1N1CCC2(CC1)CC2 [Compound 390]

- IC50: 100 to 500 nM
SMILES: CC1(F)CCN(c2nc(C(=O)Nc3ccc(S(=O)(=O)NCCO)cc3N3CCC4(CC3)CC4)ccc2[N+](=O)[O-])C1 (stereo not shown) [Compound 184]

- IC50: ≤ 100 nM
SMILES: O=C(Nc1ccc([N+](=O)[O-])c(OCCC(F)(F)F)n1)c1ccc(NS(=O)(=O)CCO)cc1N1CCC2(CC1)CC2 [Compound 69]

- IC50: ≤ 100 nM
SMILES: COc1ccc(C(=O)Nc2cnc(S(=O)(=O)NCCO)cc2N2CCC3(CC2)CC3)nc1OC1CCC1 [Compound 375]

- IC50: 100 to 500 nM
SMILES: O=C(Nc1ccc(S(=O)(=O)NCCO)cc1N1CCC2(CC1)CC2)c1ccc(OCF)c(N2CCOCC2)c1 [Compound 540]

- IC50: ≤ 100 nM
SMILES: COc1ccc(C(=O)Nc2cnc(NS(=O)(=O)[C@H](C)CO)cc2N2CCC3(CC2)CC3)nc1N1CCO[C@H](C)C1 [Compound 384]

- IC50: ≤ 100 nM
SMILES: O=C(Nc1ccc([N+](=O)[O-])c(N2CC(F)(F)C2)n1)c1ccc(NS(=O)(=O)CCO)cc1N1CCC2(CC1)CC2 [Compound 68]

- IC50: ≤ 100 nM
SMILES: C[C@@H]1CN(c2cc(C(=O)Nc3ccc(NS(=O)(=O)[C@@H](C)CO)cc3N3CCC4(CC3)CC4)ccc2OCF)CCO1 [Compound 527]

- IC50: ≤ 100 nM
SMILES: CSc1ccc(NC(=O)c2cnc(NS(=O)(=O)CCO)cc2N2CCC3(CC2)CC3)cc1N1CCOCC1 [Compound 620]

- IC50: ≤ 100 nM
SMILES: C[C@@H]1CN(c2nc(C(=O)Nc3ccc(NS(=O)(=O)CCO)cc3N3CCC4(CC3)CC4)ccc2OCF)CCO1 [Compound 546]

- IC50: ≤ 100 nM
SMILES: O=C(Nc1ccc(OCF)c(N2CCOCC2)c1)c1cnc(NS(=O)(=O)CCO)cc1N1CCC2(CC1)CC2 [Compound 460]

- IC50: ≤ 100 nM
SMILES: C[C@@H]1CN(c2nc(NC(=O)c3ccc(NS(=O)(=O)[C@H](C)CO)cc3N3CCC4(CC3)CC4)ccc2OCF)CCO1 [Compound 432]

- IC50: ≤ 100 nM
SMILES: COc1ccc(NC(=O)c2ccc(S(=O)(=O)N[C@@H](C)CO)cc2N2CCC3(CC2)CC3)nc1N1CCC(F)(F)CC1 [Compound 285]

- IC50: ≤ 100 nM
SMILES: O=C(Nc1ccc([N+](=O)[O-])c(N2CC3CC3C2)n1)c1cnc(NS(=O)(=O)CCO)cc1N1CCC2(CC1)CC2 (stereo not shown) [Compound 138]

- IC50: ≤ 100 nM
SMILES: C[C@H](CO)NS(=O)(=O)c1ccc(C(=O)Nc2ccc(OCF)c(N3CCO[C@H](C)C3)c2)c(N2CCC3(CC2)CC3)c1 [Compound 416]

- IC50: ≤ 100 nM
SMILES: C[C@@H]1CN(c2cc(NC(=O)c3cnc(NS(=O)(=O)[C@@H](C)CO)cc3N3CCC4(CC3)CC4)ccc2[N+](=O)[O-])CCO1 [Compound 111]

- IC50: ≤ 100 nM
SMILES: O=C(Nc1ccc(OCF)c(N2CC3CC3C2)n1)c1ccc(S(=O)(=O)NCCO)cc1N1CCC2(CC1)CC2 (stereo not shown) [Compound 442]

- IC50: ≤ 100 nM
SMILES: C[C@@H]1CN(c2cc(NC(=O)c3cnc(NS(=O)(=O)[C@H](C)CO)cc3N3CCC4(CC3)CC4)ccc2OCF)CCO1 [Compound 464]

- IC50: ≤ 100 nM
SMILES: O=C(Nc1ccc(OCF)c(N2CC(F)(F)C2)c1)c1ccc(S(=O)(=O)NCCO)cc1N1CCC2(CC1)CC2 [Compound 404]

- IC50: ≤ 100 nM
SMILES: O=C(Nc1ccc(NS(=O)(=O)CCO)cc1N1CCC2(CC1)CC2)c1ccc(OCF)c(N2CCC(F)CC2)c1 [Compound 521]

- IC50: ≤ 100 nM
SMILES: CC1(F)CCN(c2nc(NC(=O)c3cnc(S(=O)(=O)NCCO)cc3N3CCC4(CC3)CC4)ccc2OCF)C1 (stereo not shown) [Compound 504]

- IC50: ≤ 100 nM
SMILES: CSc1ccc(NC(=O)c2ccc(NS(=O)(=O)CCO)cc2N2CCC3(CC2)CC3)cc1N1CCO[C@@H](C)C1 [Compound 579]

- IC50: 100 to 500 nM
SMILES: O=C(Nc1ccc(S(=O)(=O)NCCO)cc1N1CCC2(CC1)CC2)c1ccc([N+](=O)[O-])c(N2CCC(F)CC2)c1 [Compound 57]

- IC50: 100 to 500 nM
SMILES: C[C@@H]1CN(c2cc(C(=O)Nc3ccc(NS(=O)(=O)[C@@H](C)CO)cc3N3CCC4(CC3)CC4)ccc2[N+](=O)[O-])CCO1 [Compound 47]

- IC50: ≤ 100 nM
SMILES: COc1ccc(C(=O)Nc2ccc(S(=O)(=O)N[C@H](C)CO)cc2N2CCC3(CC2)CC3)nc1N1CCO[C@H](C)C1 [Compound 352]

- IC50: ≤ 100 nM
SMILES: CSc1ccc(NC(=O)c2ccc(NS(=O)(=O)[C@H](C)CO)cc2N2CCC3(CC2)CC3)cc1N1CCC(F)(F)CC1 [Compound 590]

- IC50: ≤ 100 nM
SMILES: COc1ccc(C(=O)Nc2cnc(S(=O)(=O)NCCO)cc2N2CCC3(CC2)CC3)nc1N1CCOCC1 [Compound 380]

- IC50: ≤ 100 nM
SMILES: C[C@@H]1CN(c2nc(NC(=O)c3cnc(NS(=O)(=O)CCO)cc3N3CCC4(CC3)CC4)ccc2[N+](=O)[O-])CCO1 [Compound 130]
